Assay [1] concerns the target T1, RNase A (Bos taurus, UniProt P61823).
T1 sequence (P61823 27-150): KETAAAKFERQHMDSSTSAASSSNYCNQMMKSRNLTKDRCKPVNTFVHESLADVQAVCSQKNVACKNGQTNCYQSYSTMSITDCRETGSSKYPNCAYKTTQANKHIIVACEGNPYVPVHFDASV
As to the kind of experiment: RNA cleavage assay with total RNA from HeLa cells, agarose gel imaging. The class given is biochemical, bovine. The arrangement: Ribonuclease A (Type II-A) from bovine pancreas; purchased Sigma-Aldrich Korea; host or cells: bovine pancreas. Particulars: RNase 0.7 μg/ml, agarose gel image analysis, read-out: IC50 for RNase A activity inhibition. The procedure: The analysis of RNase inhibitory activity of Fv antibodies and synthetic peptides was performed using RNA samples extracted from HeLa cells as follows: (1) Mixing the RNA sample extracted from HeLa cells (600 ng) with 87.5 nM-5.6 μM under conditions of 37° C. for 30 minutes, (2) Electrophoresis on a 1% agarose gel at 90 V for 40 minutes. The estimation of RNase inhibitory activity was carried out by gel imaging of the cleaved RNA using a ChemiDoc XPS (Bio-Rad, CA, USA).
(§1) Using RNA samples extracted from HeLa cells, the RNase inhibitory activity of the synthesized peptides was estimated. The RNase inhibitory activity was assessed using agarose gel imaging of the cleaved RNA. To optimize the RNase concentration for the RNase inhibition assay, total RNA was treated with RNase A (600 ng), with RNase A concentrations ranging from 5.7 ng/ml to 3.6 μg/ml, and the cleaved RNA bands were observed after treatment with ETBR (ethidium bromide). […] The RNase concentration for inhibition analysis was determined to be 0.7 μg/ml, with RNase concentrations above 3.6 μg/ml. The inhibition analysis was performed by mixing total RNA from HeLa cells with RNase (0.7 μg/ml) and Fv-antibody at a concentration of 10 μM, resulting in the observation that the entire RNA was completely cleaved into small RNA bands in the absence of the Fv-antibody. […] The optimal concentration of the Fv-antibody for RNase inhibition was determined by the cleavage reaction with total RNA in the concentration range of 87.5 nM to 5.6 μM for Fv-antibodies (Fv-1, Fv-2, Fv-3).
The analysis of RNase inhibitory activity of Fv antibodies and synthetic peptides was performed using RNA samples extracted from HeLa cells as follows: (1) A mixture of RNA samples extracted from HeLa cells (600 ng) was prepared at concentrations of 87.5 nM-5.6 μM and incubated at 37° C. for 30 minutes; (2) Electrophoresis was conducted in a 1% agarose gel under 90 V for 40 minutes. The estimation of RNase inhibitory activity was carried out by gel imaging of the cleaved RNA using a ChemiDoc XPS (Bio-Rad, CA, USA).
as §1, with “the” for “the concentration”

Assay [2] deals with T1, RNase A. As to the kind of experiment: RNase activity test kit, modified Taq-man RNA probe analysis (ab273299). The class given is biochemical. The arrangement: purchased Abcam ab273299. Particulars: inhibitor 1 μM; after 60 minutes; positive control (no inhibitor) = 100%. The procedure:
The activity of RNase A, which degrades RNA, was evaluated using specially designed RNA probes. This RNase A analysis was performed using a commercial RNase activity test kit based on a modified Taq-man probe analysis (ab273299) from Abcam (Cambridge, UK). To compare inhibitory activity, three synthetic peptides (peptide-1, peptide-2, peptide-3) and three expressed Fv-antibodies (Fv-1, Fv-2, and Fv-3) were compared using two types of commercially available RNase inhibitors from Biofact™ (Daejeon, South Korea) and two types of RNaseOUT™ from Thermofisher (USA). The probes for the RNase inhibition analysis contained RNA probes with fluorescent dyes and quenching materials at each end of the RNA sequence. […] To estimate the RNase A inhibitory activity by the three synthesized peptides, each peptide was treated at a concentration of 1 μM using the analysis kit, and RNase activity was measured. The positive control was prepared to have an RNase reaction without an inhibitor, and the negative control was prepared to have an RNase reaction without the RNA probe. […] The RNase A inhibitory activity of the three synthesized peptides was analyzed after treating each peptide at a concentration range of 100 μM to 1 μM in the assay kit. […] The RNase A inhibitory activity of the three expressed Fv-antibodies was analyzed after treating each peptide at a concentration range of 100 μM to 1 μM in the analysis kit.
The activity of RNase A, which degrades RNA, was evaluated using specially designed RNA probes. This RNase A analysis was performed using a commercial RNase activity test kit based on a modified Taq-man probe analysis (ab273299) from Abcam (Cambridge, UK). For the comparison of inhibitory activity, three synthetic peptides (Peptide-1, Peptide-2, Peptide-3) and three expressed Fv-antibodies (Fv-1, Fv-2, and Fv-3) were compared using two types of commercially available RNase inhibitors from Biofact™ (Daejeon, South Korea) and two types of RNaseOUT™ from Thermofisher (USA). The probes for the RNase inhibition analysis contain RNA probes with fluorescent dyes and fluorescent quenchers at each end of the RNA nucleotide sequence.
To estimate the RNase A inhibitory activity of the three synthesized peptides, each peptide was treated at a concentration of 1 μM using an assay kit, and the RNase activity was evaluated. The positive control was prepared to have an RNase reaction without the inhibitor, while the negative control was prepared to have an RNase reaction without the RNA probe.
The RNase A inhibitory activity of the three synthesized peptides was analyzed after treating each peptide at a concentration range of 100 μM to 1 μM with the RNase A from the assay kit.

Broadly, the IC50 is the concentration at which inhibition is half-maximal. As to Inhibitor-2 [reference compound], the 50% inhibitory concentration (IC50) at RNase A [1] was 381 nM. The “relative inhibition level / reduction of RNase A activity” value on RNase A [2] was 27.2%.
The corresponding values for Inhibitor-1 [reference compound] are 257 nM and 35.8%.
